Publication PMC8152971, “Valeriana rigida Ruiz & Pav. Root Extract: A New Source of Caffeoylquinic Acids with Antioxidant and Aldose Reductase Inhibitory Activities” (Foods, 2021)
Where “and” joins values, the source holds several entries; their conditions need not be identical. Equal entries are not always repeated. Where two headings read alike, the source gives them in different places. Marks after values point to notes of the source that are not given here.

Assays:
[1] = Partition coefficient (K upper/lower) in biphasic CCC solvent systems; type: physicochemical
Protocol: The solvent system was screened via HPLC and evaluated according to the partition coefficient (K value) of the target compounds on the principle introduced by Ito [32]. Briefly, four solvent systems comprising EtOAc, n-BuOH, […] solution to 29 mM, and then the corresponding K values of the target compounds under acidic (Kacid) or basic (Kbase) conditions were determined, as previously described: each acidified or basified solvent system was partitioned to upper layer and lower layer. Thereafter, the extract (about 1–2 mg) was prepared in a 1.5 mL tube and dissolved by adding equal volumes (each 500 µL) of the upper layer and lower layers, which were mixed by a vortex mixer and centrifuged for about 20 s using a C1301 Mini Centrifuge (Labnet International, South Korea). Next, the upper and lower phase sample solutions were respectively pipetted (each 200 µL) into a new 1.5 mL-tube and evaporated by nitrogen gas. Each sample residue was redissolved using 200 µL of MeOH and subjected to HPLC analysis with an injection volume of 20 µL. The K value was calculated as K = Aupper/Alower, where Aupper and Alower are the HPLC peak areas of the target component in the upper and lower phases, respectively.

[2] = biological target: T1, rat lens AR homogenate (aldose reductase) (Rattus norvegicus, UniProt P07943); experiment: AR inhibition assay; type: biochemical, Sprague–Dawley rats
T1 construct: the lenses were removed from the eyes, ground in a mortar; from tissue; host or cells: lens of Sprague–Dawley rats
Protocol: The eyes of 10-week Sprague–Dawley rats (250–280 g) were removed and frozen at −70 °C before use. Thereafter, the lenses were removed from the eyes, ground in a mortar (precooled at −70 °C), and extracted using 0.1 M PBS of pH 6.2 (around 0.5 mL of buffer per two frozen rat lenses).
The AR inhibitory activities of the extract and the separated compounds were determined as described previously. […] Next, the reaction was initiated by adding 20 µL of the substrate (DL-glyceraldehyde dimmer, 25 mM in 0.1 M PBS of pH 7.0), and the values were further measured for 6 min at 340 nm (OD340) using an Epoch microplate spectrophotometer (BioTek Instruments, Winooski, VT, USA). […] The DMSO used for sample preparation was less than 0.4% (v/v) in the reaction system.

[3] = Oxygen radical absorbance capacity (ORAC) assay; conditions: Trolox equivalent antioxidant capacity, mean ± SD, n ≥ 3
Protocol: The oxygen radical absorbance capacity (ORAC) assay was performed as previously described. Briefly, 0. […] Next, 60 µL of AAPH (40 mM) was added to generate peroxyl radicals to initiate the reaction.

[4] = DPPH radical scavenging assay; conditions: Trolox equivalent antioxidant capacity, mean ± SD, n ≥ 3
Protocol: The experiment was carried out as previously described. […] Thereafter, the absorbance was measured using a microplate reader (EL800, Bio-Tek Instruments, Winooski, VT, USA) at 570 nm.

[5] = ABTS radical scavenging assay; conditions: Trolox equivalent antioxidant capacity, mean ± SD, n ≥ 3
Protocol: The experiment was conducted as previously described. In brief, 3.5 mM of potassium persulfate aqueous solution was used to prepare 0.2 mM of ABTS diammonium salt. The solution was diluted 10-fold using distilled water and allowed to produce ABTS radicals (ABTS^+) by keeping the solution in the dark for 14 h at room temperature. […] Equation (1) was used to calculate the ABTS^+ scavenging activity (%), where Acontrol is the absorbance of ABTS^+ solution free of samples, Asample is the absorbance of ABTS^+ solution incubated with a sample, Ablank1 is the absorbance of the test sample free of ABTS^+ solution, and Ablank2 is the absorbance of the diluted potassium persulfate solution.

[6] = Hypochlorous acid (HOCl) scavenging assay
Protocol: The HOCl scavenging assay was adapted from a previous study using 1,8-diaminonaphthalene as a fluorescence probe for hypochlorite. […] Next, the fluorescence intensity (λex = 360 ± 20 nm, λem = 460 ± 20 nm) was immediately measured using a microplate fluorescence reader (FLx800; Bio-Tek, Winooski, VT, USA). Trolox (final concentration 25–100 µg/mL) was used as a reference antioxidant.

[7] = EtOAc/H2O, 1:1, 208 mM formic acid
[8] = EtOAc/n-BuOH/H2O, 2:3:5, 30 mM ammonia
[9] = EtOAc/n-BuOH/H2O, 2:3:5, 208 mM formic acid
[10] = EtOAc/n-BuOH/H2O, 3:2:5, 30 mM ammonia
[11] = EtOAc/n-BuOH/H2O, 3:2:5, 208 mM formic acid
[12] = EtOAc/n-BuOH/H2O, 4:1:5, 30 mM ammonia
[13] = EtOAc/n-BuOH/H2O, 4:1:5, 208 mM formic acid
[14] = read-out: AR inhibitory Activity Inhibition (%)
[15] = rat lens AR, read-out: AR inhibitory Activity IC50

| SMILES | K(upper/lower) Value ([1]; EtOAc/H2O, 1:1, 30 mM ammonia) | K(upper/lower) Value [1, 7] | K(upper/lower) Value [1, 8] | K(upper/lower) Value [1, 9] | K(upper/lower) Value [1, 10] | K(upper/lower) Value [1, 11] | K(upper/lower) Value [1, 12] | K(upper/lower) Value [1, 13] | inhibition at 0.391 µM [2, 14] [%] | IC50 [2, 15] [nM] | TE, ORAC [3] | TE, DPPH [4] | inhibition at 0.195 µM [2, 14] [%] | TE, ABTS [5] | HOCl Scavenging Activity Inhibition (%) ([6]; 6.25 µM) | HOCl Scavenging Activity Inhibition (%) ([6]; 12.5 µM) | IC50 ([6]; linear regression) [nM] | also measured |
| --- | --- | --- | --- | --- | --- | --- | --- | --- | --- | --- | --- | --- | --- | --- | --- | --- | --- | --- |
| O=C(/C=C/c1ccc(O)c(O)c1)O[C@@H]1C[C@](O)(C(=O)O)C[C@@H](O)[C@H]1O [5-CQA (2), 5-O-caffeoylquinic acid] | 0.01 | 0.95 | 0.01 | 6.86 | 0.03 | 5.48 | 0.01 | 2.43 | 30.8 ± 2.18 | 910 |  |  |  |  |  |  |  | inhibition at 0.781 µM [2, 14]: 44.2 ± 1.17%; inhibition at 1.563 µM ([2]; 1.563 µM, read-out: AR inhibitory Activity Inhibition (%)): 63.8 ± 2.55% |
| O=C(/C=C/c1ccc(O)c(O)c1)O[C@H]1[C@H](O)C[C@](O)(C(=O)O)C[C@H]1OC(=O)/C=C/c1ccc(O)c(O)c1 [3,4-diCQA (4), 3,4-di-O-caffeoylquinic acid] | 0.02 | 3.49 | 0.04 | 20.24 | 0.03 | 16.14 | 0.02 | 4.86 | 68.67 ± 0.68 | 220 | 3.26 ± 0.10 ^a µmol Trolox Equivalents Per µmol Compound | 1.09 ± 0.09 ^b µmol Trolox Equivalents Per µmol Compound | 50.4 ± 3.34 | 1.06 ± 0.06 ^c µmol Trolox Equivalents Per µmol Compound | 50.28 ± 0.19 | 59.15 ± 1.19 | 5780 | inhibition at 0.098 µM [2, 14]: 18.9 ± 2.43%; HOCl Scavenging Activity Inhibition (%) ([6]; 3.125 µM): 46.68 ± 2.87% |
| COc1ccc(-c2cc(=O)c3c(O)cc(O)cc3o2)cc1 [Acacetin (8), acacetin] |  |  |  |  |  |  |  |  |  |  |  |  |  |  |  |  |  | inhibition at 25 µM ([2]; 25 µM, read-out: AR inhibitory Activity Inhibition (%)): 12.3 ± 4.22%; inhibition at 50 µM ([2]; 50 µM, read-out: AR inhibitory Activity Inhibition (%)): 24 ± 0.63%; inhibition at 100 µM ([2]; 100 µM, read-out: AR inhibitory Activity Inhibition (%)): 36.3 ± 3.78% |
| O=c1c(O)c(-c2ccc(O)c(O)c2)oc2cc(O)cc(O)c12 [Quercetin, quercetin, reference compound] |  |  |  |  |  |  |  |  |  |  |  |  |  |  |  |  |  | inhibition at 1.889 µg/mL [2, 14]: 34.8 ± 0.51%; inhibition at 3.778 µg/mL [2, 14]: 46 ± 4.49%; inhibition at 6.25 µM [2, 14]: 34.8 ± 0.51%; inhibition at 7.556 µg/mL [2, 14]: 67 ± 3.22%; inhibition at 12.5 µM [2, 14]: 46 ± 4.49%; inhibition at 25 µM [2, 14]: 67 ± 3.22% |
| C[C@@H]1O[C@@H](Oc2c(-c3ccc(O)c(O)c3)oc3cc(O)cc(O)c3c2=O)[C@H](O)[C@H](O)[C@H]1O [Quercitrin, quercitrin, reference compound] |  |  |  |  |  |  |  |  |  |  |  |  |  |  |  |  |  | IC50 ([2]; AR Inhibitory Activity IC50, rat lens AR): 103 nM; IC50 ([2]; AR inhibitory Activity IC50, rat lens AR): 102 nM and 100 nM; inhibition at 0.056 µg/mL [2, 14]: 62.33 ± 0.44%; inhibition at 0.063 µM [2, 14]: 32.6 ± 2.7%; inhibition at 0.112 µg/mL [2, 14]: 74.6 ± 1.11%; inhibition at 0.125 µM [2, 14]: 62.33 ± 0.44%; inhibition at 0.25 µM [2, 14]: 74.6 ± 1.11% |
| Cc1c(C)c2c(c(C)c1O)CCC(C)(C(=O)O)O2 (stereo not drawn) [Trolox, reference compound] |  |  |  |  |  |  |  |  |  |  |  |  |  |  |  |  | 34000 | HOCl Scavenging Activity Inhibition (%) ([6]; 6.25 µg/mL): 40.76 ± 0.39%; HOCl Scavenging Activity Inhibition (%) ([6]; 12.5 µg/mL): 66.53 ± 2.54%; HOCl Scavenging Activity Inhibition (%) ([6]; 25 µM): 40.76 ± 0.39%; HOCl Scavenging Activity Inhibition (%) ([6]; 25 µg/mL): 97.07 ± 5.45%; HOCl Scavenging Activity Inhibition (%) ([6]; 50 µM): 66.53 ± 2.54%; HOCl Scavenging Activity Inhibition (%) ([6]; 100 µM): 97.07 ± 5.45%; HOCl Scavenging Activity IC50 ([6]; linear regression): 8.52 µg/mL |
| O=C(/C=C/c1ccc(O)c(O)c1)O[C@@H]1C[C@](O)(C(=O)O)C[C@@H](OC(=O)/C=C/c2ccc(O)c(O)c2)[C@H]1O [3,5-diCQA (5), 3,5-di-O-caffeoylquinic acid] | 0.01 | 7.71 | 0.12 | 38.56 | 0.01 | 35.91 | 0.01 | 14.23 | 75.6 ± 1.33 |  | 2.13 ± 0.07 ^b µmol Trolox Equivalents Per µmol Compound | 0.86 ± 0.08 ^c µmol Trolox Equivalents Per µmol Compound | 62.3 ± 1.33 | 0.89 ± 0.05 ^d µmol Trolox Equivalents Per µmol Compound | 56.13 ± 3.01 | 62.86 ± 1.23 | 2930 | inhibition at 0.098 µM [2, 14]: 35.4 ± 1.33%; HOCl Scavenging Activity Inhibition (%) ([6]; 3.125 µM): 49.56 ± 1.23% |
| O=C(/C=C/c1ccc(O)c(O)c1)O[C@@H]1C[C@](O)(C(=O)O)C[C@@H](OC(=O)/C=C/c2ccc(O)c(O)c2)[C@H]1OC(=O)/C=C/c1ccc(O)c(O)c1 [3,4,5-triCQA (7), 3,4,5-tri-O-caffeoylquinic acid] | 0.02 | 23.71 | 0.40 | 29.51 | 0.22 | 26.44 | 0.03 | 27.56 | 49.7 ± 0.94 | 400 | 1.95 ± 0.15 ^b µmol Trolox Equivalents Per µmol Compound | 1.28 ± 0.04 ^a µmol Trolox Equivalents Per µmol Compound | 27.6 ± 2.43 | 1.31 ± 0.05 ^a µmol Trolox Equivalents Per µmol Compound | 35.39 ± 1.17 | 52.93 ± 1.02 | 11700 | inhibition at 0.781 µM [2, 14]: 69.8 ± 0.77%; HOCl Scavenging Activity Inhibition (%) ([6]; 25 µM): 84.32 ± 3.39% |
| CC(/C=C1\SC(=S)N(CC(=O)O)C1=O)=C\c1ccccc1 [Epalrestat, epalrestat, reference compound] |  |  |  |  |  |  |  |  |  |  |  |  |  |  |  |  |  | inhibition at 0.01 µg/mL [2, 14]: 21.7 ± 1.25%; inhibition at 0.02 µg/mL [2, 14]: 79.3 ± 1.35%; inhibition at 0.031 µM [2, 14]: 21.7 ± 1.25%; inhibition at 0.04 µg/mL [2, 14]: 91.8 ± 1.84%; inhibition at 0.063 µM [2, 14]: 79.3 ± 1.35%; inhibition at 0.125 µM [2, 14]: 91.8 ± 1.84% |
| O=C(/C=C/c1ccc(O)c(O)c1)O[C@@H]1C[C@@](O)(C(=O)O)C[C@@H](O)[C@@H]1O [3-CQA (1), 3-O-caffeoylquinic acid] | 0.02 | 0.49 | 0.01 | 2.49 | 0.05 | 2.03 | 0.00 | 1.36 |  |  |  |  |  |  |  |  |  | K(upper/lower) Value ([1]; n-BuOH/H2O, 1:1): 0.04; K(upper/lower) Value ([1]; n-BuOH/H2O, 1:1 + 8.7 mM acetic acid): 0.73; inhibition at 1.5625 µM ([2]; 1.5625 µM, read-out: AR inhibitory Activity Inhibition (%)): 29.4 ± 3.4%; inhibition at 3.125 µM ([2]; 3.125 µM, read-out: AR inhibitory Activity Inhibition (%)): 45.8 ± 1.75%; inhibition at 6.25 µM ([2]; 6.25 µM, read-out: AR inhibitory Activity Inhibition (%)): 60.1 ± 1.22% |
